{"source": "patent US20120121591A1", "about": "(priority 2009, published 2012)"}
{"tested_on": "IL-2 secretion from T cells in human whole blood", "assay_type": "cell-based", "details": "read-out: WB (IL-2) IC50 (nM, Avg)", "units": {"IC50": "nM"}}
{"smiles": "CC[C@H](C)[C@@H]1NC(=O)[C@@H](NC(=O)[C@H](CO)NC(=O)[C@@H](N)CCCNC(=N)N)CSSC[C@@H](C(=O)O)NC(=O)[C@H]([C@@H](C)O)NC(=O)[C@H](CCC(=O)O)NC(=O)[C@@H]2CSSC[C@@H]3NC(=O)[C@H](CCC(N)=O)NC(=O)[C@H](Cc4ccccc4)NC(=O)[C@H](C)NC(=O)[C@H]([C@@H](C)O)NC(=O)[C@H](CSSC[C@H](NC(=O)[C@H](Cc4ccccc4)NC(=O)[C@H](CO)NC(=O)[C@H](CC(C)C)NC(=O)[C@H](CCCNC(=N)N)NC(=O)[C@H](Cc4ccc(O)cc4)NC(=O)[C@H](CCCCN)NC(=O)[C@H](CCSC)NC(=O)[C@H](CO)NC(=O)[C@H](Cc4c[nH]cn4)NC(=O)[C@H](CCCCN)NC3=O)C(=O)N[C@@H](CCCNC(=N)N)C(=O)N[C@@H](CCCCN)C(=O)N[C@@H]([C@@H](C)O)C(=O)N2)NC(=O)[C@H](CCCNC(=N)N)NC(=O)[C@H](CO)NC(=O)[C@H](CCCCN)NC(=O)[C@@H]2CCCN2C(=O)[C@H]([C@@H](C)CC)NC(=O)[C@H]([C@@H](C)O)NC(=O)[C@H](CC(=O)O)NC1=O", "note": "[[Glu33]ShK]", "IC50": 0.054}
{"smiles": "CC[C@H](C)[C@@H]1NC(=O)[C@@H](NC(=O)[C@H](CO)NC(=O)[C@@H](N)CCCNC(=N)N)CSSC[C@@H](C(=O)O)NC(=O)[C@H]([C@@H](C)O)NC(=O)CNC(=O)[C@@H]2CSSC[C@@H]3NC(=O)[C@H](CCC(N)=O)NC(=O)[C@H](Cc4ccccc4)NC(=O)[C@H](C)NC(=O)[C@H]([C@@H](C)O)NC(=O)[C@H](CSSC[C@H](NC(=O)[C@H](Cc4ccccc4)NC(=O)[C@H](CO)NC(=O)[C@H](CC(C)C)NC(=O)[C@H](CCCNC(=N)N)NC(=O)[C@H](Cc4ccc(O)cc4)NC(=O)[C@H](CCCCN)NC(=O)[C@H](CCSC)NC(=O)[C@H](CO)NC(=O)[C@H](Cc4c[nH]cn4)NC(=O)[C@H](CCCCN)NC3=O)C(=O)N[C@@H](CCCNC(=N)N)C(=O)N[C@@H](CCCCN)C(=O)N[C@@H]([C@@H](C)O)C(=O)N2)NC(=O)[C@H](CCCNC(=N)N)NC(=O)[C@H](CO)NC(=O)[C@H](Cc2cccc3ccccc23)NC(=O)[C@@H]2CCCN2C(=O)[C@H]([C@@H](C)CC)NC(=O)[C@H]([C@@H](C)O)NC(=O)[C@H](CC(=O)O)NC1=O", "note": "[[1-Nal9]ShK]", "IC50": 0.367}
{"smiles": "CC[C@H](C)[C@@H]1NC(=O)[C@@H](NC(=O)[C@H](CO)NC(=O)[C@@H](N)CCCNC(=N)N)CSSC[C@@H](C(=O)O)NC(=O)[C@H]([C@@H](C)O)NC(=O)CNC(=O)[C@@H]2CSSC[C@@H]3NC(=O)[C@H](CCC(N)=O)NC(=O)[C@H](Cc4ccccc4)NC(=O)[C@H](C)NC(=O)[C@H]([C@@H](C)O)NC(=O)[C@H](CSSC[C@H](NC(=O)[C@H](Cc4ccccc4)NC(=O)[C@H](CO)NC(=O)[C@H](CC(C)C)NC(=O)[C@H](CCCNC(=N)N)NC(=O)[C@H](Cc4ccc(O)cc4)NC(=O)[C@H](CCCCN)NC(=O)[C@H](CCSC)NC(=O)[C@H](CO)NC(=O)[C@H](Cc4c[nH]cn4)NC(=O)[C@H](CCCCN)NC3=O)C(=O)N[C@@H](CCCNC(=N)N)C(=O)N[C@@H](CCCCN)C(=O)N[C@@H]([C@@H](C)O)C(=O)N2)NC(=O)[C@H](CCCCN)NC(=O)[C@H](CO)NC(=O)[C@H](CCCCN)NC(=O)[C@@H]2CCCN2C(=O)[C@H]([C@@H](C)CC)NC(=O)[C@H]([C@@H](C)O)NC(=O)[C@H](CC(=O)O)NC1=O", "note": "[[Lys11]ShK]", "IC50": 0.095}
